From patent US10774071B2, “PD-1/PD-L1 inhibitors” (Gilead Sciences, Inc., priority 2018, dated 2020)
Where two headings read alike, the source gives them in different places.

Tests used:
PD-1/PD-L1 = PD-1/PD-L1 (Homo sapiens (Human), UniProt Q9NZQ7); assay: PD-1/PD-L1 biochemical protein-protein interaction assay (ALPHA); assay type: binding; details: read-out: IC50 PD-L1-PD1
Experimental: Compounds were tested in biochemical protein-protein interaction assays to determine if they can specifically block the interaction between the extracellular domains of PD-1/PD-L1 or CTLA/CD80. Binding of the protein pairs is measured using a bead based Amplified Luminescent Proximity Homogeneous Assay (ALPHA) platform. […] Final protein concentration in the assays were 0.3 nM (His tagged PD-L1), 2.5 nM (biotinylated Fc-PD-1), 1 nM (His tagged CTLA4) and 1 nM (biotinylated CD80).

PD-L1 = PD-L1 (Homo sapiens (Human), UniProt Q9NZQ7); assay: PD-L1/PD-L1 dimerization biochemical protein-protein interaction assay (ALPHA); assay type: binding; details: read-out: AC50 PDL1 Dimer 1 nM
Sequence of PD-L1 (Q9NZQ7 19-238): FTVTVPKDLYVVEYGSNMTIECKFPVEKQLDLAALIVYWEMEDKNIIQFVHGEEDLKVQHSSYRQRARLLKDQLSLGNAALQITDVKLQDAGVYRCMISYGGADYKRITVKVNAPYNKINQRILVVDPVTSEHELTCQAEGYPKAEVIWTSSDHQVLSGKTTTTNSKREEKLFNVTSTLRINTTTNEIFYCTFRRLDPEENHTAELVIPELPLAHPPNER
Sequence of PD-L1 (Q9NZQ7 19-238): as above

[1] = 0.3 nM His tagged PD-L1, 2.5 nM biotinylated Fc-PD-1, readings of 0.064 nM are equal to or less than 0.064 nM
[2] = 0.5 nM His tagged PD-L1 and 0.5 nM FLAG tagged PD-L1, Table 4A
[3] = 0.3 nM His tagged PD-L1, 2.5 nM biotinylated Fc-PD-1, Table 3B
[4] = 0.5 nM His tagged PD-L1 and 0.5 nM FLAG tagged PD-L1, Table 4B

Sequence of PD-1/PD-L1 (Q9NZQ7 19-238): as above

Compound	IC50 (PD-1/PD-L1; [1]) [nM]	AC50 (PD-L1; [2]) [nM]	IC50 (PD-1/PD-L1; [3]) [nM]	AC50 (PD-L1; [4]) [nM]
COc1nc(N[C@H]2CCc3c(-c4cccc(-c5ccc(CNC[C@@H]6CCC(=O)N6)c(OCC#N)n5)c4Cl)cccc32)c(C(F)(F)F)cc1CN1CCC[C@]1(C)C(=O)O [A-28]	≤ 0.064	18.1	–	–
COc1cc(N[C@H]2CCc3c(-c4cccc(-c5ccc(CNC[C@@H]6CCC(=O)N6)c(OC)n5)c4Cl)cccc32)c(Cl)cc1CN1CC[C@@](C)(C(=O)O)C1 [A-14, (R)-1-(5-chloro-4-(((S)-4-(2-chloro-3-(6-methoxy-5-(((((S)-5-oxopyrrolidin-2-yl)methyl)amino)methyl)pyridin-2-yl)phenyl)-2,3-dihydro-1H-inden-1-yl)amino)-2-methoxybenzyl)-3-methylpyrrolidine-3-carboxylic acid]	≤ 0.064	30.4	–	–
COc1nc(-c2cccc(-c3cccc4c3CC[C@@H]4Nc3nc(OC)c(CN4CC5(C(=O)O)CCC4CC5)nc3C(F)(F)F)c2Cl)ccc1CNC[C@H]1CCC(=O)N1 [A-62]	≤ 0.064	45.4	–	–
COc1nc(-c2cccc(-c3cccc4c3CC[C@@H]4Oc3nc(OC)c(CN4CC[C@@H](C(=O)N=S(C)(=O)NC(=O)C(F)(F)F)C4)cc3Cl)c2Cl)ccc1CNC[C@@H]1CCC(=O)N1 (some centres unmarked) [B-162]	–	–	0.082	134
COc1nc(-c2cccc(-c3cccc4c3CC[C@@H]4Oc3nc(OC)c(CN4CC(C)(C(=O)O)C4)cc3Cl)c2Cl)ccc1CNC[C@@H]1CCC(=O)N1 [B-10]	–	–	0.064	5.4
COc1nc(-c2cccc(-c3cccc4c3CC[C@@H]4Oc3nc(OC)c(CN4CCC[C@]4(C)C(=O)O)cc3C(F)(F)F)c2Cl)ccc1CNC[C@@H]1CCC(=O)N1 [B-8]	–	–	0.064	13.2
COc1cc(-c2cccc(-c3cccc4c3CC[C@@H]4Oc3nc(OC)c(CN4CC5(C(=O)O)CCC4CC5)cc3Cl)c2Cl)cc(F)c1CNC[C@@H]1CCC(=O)N1 [B-129]	–	–	0.064	16.5
COc1cc(N[C@H]2CCc3c(-c4cccc(-c5ccc(CNC[C@@H]6CCC(=O)N6)c(OC)n5)c4Cl)cccc32)c(C(F)(F)F)cc1CN1CC[C@H](C(=O)O)C1 [A-10]	≤ 0.064	16.7	–	–
COc1nc(-c2cccc(-c3cccc4c3CC[C@@H]4Oc3nc(OC)c(CN4CCC(C(=O)O)CC4)cc3Cl)c2Cl)ccc1CNC[C@@H]1CCC(=O)N1 [B-115]	–	–	0.064	26.3
COc1nc(-c2cccc(-c3cccc4c3CC[C@@H]4Nc3nc(OC)c(CN4CCC5CC4(C(=O)O)C5)nc3C(F)(F)F)c2Cl)ccc1CNC[C@@H]1CCC(=O)N1 [A-70]	≤ 0.064	15.6	–	–
COc1cc(-c2cccc(-c3cccc4c3CC[C@@H]4Oc3nc(OC)c(CN4CC5(C(=O)O)CCC4CC5)cc3C(F)(F)F)c2Cl)cc(F)c1CNC[C@@H]1CCC(=O)N1 [B-194]	–	–	0.064	4.54
COc1nc(-c2cccc(-c3cccc4c3CC[C@@H]4Oc3nc(OC)c(CN(C)CC(=O)O)cc3C(F)(F)F)c2Cl)ccc1CNC[C@@H]1CCC(=O)N1 [B-258]	–	–	0.064	5.9
COc1nc(-c2cccc(-c3cccc4c3CC[C@@H]4Oc3nc(OC)c(CN4CC[C@@](C)(C(=O)O)C4)cc3C(F)(F)F)c2Cl)ccc1CNC[C@H]1C[C@](C)(O)C1 [B-208]	–	–	0.064	23.5
COC[C@H](NCc1cc(C(F)(F)F)c(O[C@H]2CCc3c(-c4cccc(-c5ccc(CN[C@H]6C[C@](C)(O)C6)c(OC)n5)c4Cl)cccc32)nc1OC)C(=O)O [B-256]	–	–	0.064	13.1
COc1nc(-c2cccc(-c3cccc4c3CC[C@@H]4Nc3nc(OC)c(CN[C@@H](C)C(=O)O)cc3C(F)(F)F)c2Cl)ccc1CN[C@H]1C[C@](C)(O)C1 [A-66]	≤ 0.064	19.6	–	–
CNC(=O)C1CCN(Cc2ccc(-c3cccc(-c4cccc5c4CC[C@@H]5Oc4nc(OC)c(CN5CCC(C(=O)NC)C5)cc4Cl)c3Cl)nc2OC)C1 (some centres unmarked) [B-87]	–	–	0.064	90.7
COc1nc(O[C@H]2CCc3c(-c4cccc(-c5cnc(CNC[C@@H]6CCC(=O)N6)c(OC)n5)c4C)cccc32)c(Cl)cc1CN1CC[C@@H](C(=O)O)C1 [B-81]	–	–	0.064	118
COc1nc(-c2cccc(-c3cccc4c3CC[C@@H]4Oc3nc(OC)c(CN4CCC5(C(=O)O)CC45)cc3Cl)c2Cl)ccc1CNC[C@@H]1CCC(=O)N1 (some centres unmarked) [B-26]	–	–	0.064	18.4
COc1nc(-c2cccc(-c3cccc4c3CC[C@@H]4Oc3nc(OC)c(CN4CC[C@@H](C(=O)N=S(C)(=O)NCC(F)(F)F)C4)cc3Cl)c2Cl)ccc1CNC[C@@H]1CCC(=O)N1 (some centres unmarked) [B-161]	–	–	0.073	41.2

Compound	IC50 (PD-1/PD-L1; [1]) [nM]	AC50 (PD-L1; [2]) [nM]	IC50 (PD-1/PD-L1; [3]) [nM]	AC50 (PD-L1; [4]) [nM]
CC[C@H](NCc1cc(C(F)(F)F)c(O[C@H]2CCc3c(-c4cccc(-c5ccc(CN[C@H]6C[C@](C)(O)C6)c(OC)n5)c4Cl)cccc32)nc1OC)C(=O)O [B-211]	–	–	0.064	9.21
COc1cc(O[C@H]2CCc3c(-c4cccc(-c5ccc(CNC[C@@H]6CCC(=O)N6)c(OC)n5)c4Cl)cccc32)c(C(F)(F)F)cc1CN1CCC[C@@]1(C)C(=O)O [B-223]	–	–	0.064	18
COc1cc(-c2cccc(-c3cccc4c3CC[C@@H]4Oc3nc(OC)c(CN4CC5(C(=O)O)CCC4CC5)cc3Cl)c2Cl)ccc1CNC[C@@H]1CCC(=O)N1 [B-39]	–	–	0.064	3.8
COc1nc(-c2cccc(-c3cccc4c3CC[C@@H]4Oc3nc(OC)c(CN4CC5(C(=O)O)CCC4CC5)cc3Cl)c2Cl)ccc1CNC1CC2CCC1N2C(C)=O (some centres unmarked) [B-23]	–	–	0.064	62.8
COc1nc(-c2cccc(-c3cccc4c3CC[C@@H]4Oc3nc(OC)c(CN4CC(C)(O)C4)cc3C(F)(F)F)c2Cl)ccc1CNC[C@@H]1CCC(=O)N1 [B-260]	–	–	0.064	18
COc1nc(-c2cccc(-c3cccc4c3CC[C@@H]4Oc3nc(OC)c(CNCC(=O)O)cc3C)c2Cl)ccc1CNC[C@@H]1CCC(=O)N1 [B-239]	–	–	0.064	21.3
COc1nc(O[C@H]2CCc3c(-c4cccc(-c5cc(C)c(CN6CC(C)(O)C6)c(OC)n5)c4Cl)cccc32)c(Cl)cc1CN1CC2(C(=O)O)CCC1CC2 [B-57]	–	–	0.08	66.5
COc1nc(-c2cccc(-c3cccc4c3CC[C@@H]4Oc3nc(OC)c(CN4C[C@@H]5CCC[C@]5(C(=O)O)C4)cc3Cl)c2Cl)ccc1CNC[C@@H]1CCC(=O)N1 [B-92]	–	–	0.064	54.5
COc1nc(O[C@H]2CCc3c(-c4cccc(-c5ccc(CNC[C@@H]6CCC(=O)N6)c(OCC#N)n5)c4Cl)cccc32)c(C(F)(F)F)cc1CN1CC2(C(=O)O)CCC1CC2 [B-126]	–	–	0.064	3.35
COc1nc(-c2cccc(-c3cccc4c3CC[C@@H]4Oc3nc(OC)c(CN4CC(C)(O)C4)cc3Cl)c2Cl)ccc1CNC[C@@H]1CCC(=O)N1 [B-102]	–	–	0.146	80.6
COc1nc(O[C@H]2CCc3c(-c4cccc(-c5cc(F)c(CNC[C@@H]6CCC(=O)N6)c(OC)n5)c4Cl)cccc32)c(Cl)cc1CN1CC(C(=O)O)C1 [B-142]	–	–	0.064	38.9
COc1cc(-c2cccc(-c3cccc4c3CC[C@@H]4Nc3nc(OC)c(CN(C)CC(=O)O)nc3C(F)(F)F)c2Cl)cc(F)c1CNC[C@@H]1CCC(=O)N1 [A-30]	≤ 0.064	9.89	–	–
COc1nc(O[C@H]2CCc3c(-c4cccc(-c5cc(C)c(CN6CC(C)(O)C6)c(OC)n5)c4Cl)cccc32)c(Cl)cc1CN1CC[C@H](C(=O)O)C1 [B-60]	–	–	0.064	55.6
COc1cc(O[C@H]2CCc3c(-c4cccc(-c5ccc(CNC[C@@H]6CCC(=O)N6)c(OC)n5)c4Cl)cccc32)c(C(F)(F)F)cc1CN1CC[C@H](C(=O)O)C1 [B-165]	–	–	0.064	24.6
COc1nc(-c2cccc(-c3cccc4c3CC[C@@H]4Nc3nc(OC)c(CN4CC5(CCC(=O)N5)C4)cc3Cl)c2Cl)ccc1CNC[C@@H]1CCC(=O)N1 [A-7]	1.18	180	–	–
COc1nc(O[C@H]2CCc3c(-c4cccc(-c5cc(F)c(CNC[C@@H]6CCC(=O)N6)c(OC)n5)c4Cl)cccc32)c(C(F)(F)F)cc1CNC1(C(=O)O)CC1 [B-189]	–	–	0.064	9.85
COc1nc(-c2cccc(-c3cccc4c3CC[C@@H]4Nc3nc(OC)c(CN4CC[C@H](C(=O)O)C4)cc3C(F)(F)F)c2Cl)ccc1CNC[C@@H]1CCC(=O)N1 [A-3]	≤ 0.064	13.9	–	–
COc1nc(-c2cccc(-c3cc(F)cc4c3CC[C@@H]4Oc3nc(OC)c(CN4CC[C@@H](C(=O)O)C4)cc3C(F)(F)F)c2Cl)ccc1CNC[C@@H]1CCC(=O)N1 [B-217]	–	–	0.064	28.9
